Publication PMC5218480 (PLoS ONE, 2017)

Tested on: MV-4-11 cells
Experiment: Gene expression microarray analysis (Affymetrix PrimeView) and GSEA
Assay type: cell-based, human
Set-up: RFU PODN (11730768_x_at) / Fold change /veh PODN (11730768_x_at) / RFU LINC00158 (11744669_a_at) / Fold change /veh LINC00158 (11744669_a_at) / RFU DUSP10 (11751237_a_at) / Fold change /veh DUSP10 (11751237_a_at) / RFU ID3 (11757404_x_at) / Fold change /veh ID3 (11757404_x_at) / RFU PLEKHG5 (11737974_s_at) / Fold change /veh PLEKHG5 (11737974_s_at) / RFU LRRC4B (11730491_at) / Fold change /veh LRRC4B (11730491_at) / RFU GIMAP4 (11747438_a_at) / Fold change /veh GIMAP4 (11747438_a_at) / RFU KRT8 (11758183_x_at) / Fold change /veh KRT8 (11758183_x_at) / RFU CNN1 (11734310_a_at) / Fold change /veh CNN1 (11734310_a_at) / RFU VPS37D (11726825_at) / Fold change /veh VPS37D (11726825_at) / RFU C10orf10 (11716522_x_at) / Fold change /veh C10orf10 (11716522_x_at) / RFU KIR2DL2 /// KIR2DL4 /// KIR2DL5A /// KIR2DL5B /// KIR2DS1 /// KIR2DS2 /// KIR2DS3 /// KIR2DS4 /// KIR3DL3 /// KIR3DL3 /// KIR3DS1 (11738374_at) / Fold change /veh KIR2DL2 /// KIR2DL4 /// KIR2DL5A /// KIR2DL5B /// KIR2DS1 /// KIR2DS2 /// KIR2DS3 /// KIR2DS4 /// KIR3DL3 /// KIR3DL3 /// KIR3DS1 (11738374_at) / RFU C1QL1 (11718748_at) / Fold change /veh C1QL1 (11718748_at) / RFU TMPRSS4 (11747572_a_at) / Fold change /veh TMPRSS4 (11747572_a_at) / RFU HAMP (11756126_x_at) / Fold change /veh HAMP (11756126_x_at) / RFU RNFT2 (11725882_a_at) / Fold change /veh RNFT2 (11725882_a_at) / RFU NR4A2 (11747474_a_at) / Fold change /veh NR4A2 (11747474_a_at) / RFU ABCC12 (11746883_a_at) / Fold change /veh ABCC12 (11746883_a_at) / RFU TMEM136 (11760407_x_at) / Fold change /veh TMEM136 (11760407_x_at) / RFU CLDN22 /// WWC2 (11732394_at) / Fold change /veh CLDN22 /// WWC2 (11732394_at) / RFU HLA-DPB1 (11760878_x_at) / Fold change /veh HLA-DPB1 (11760878_x_at) / RFU SPINT1 (11716480_a_at) / Fold change /veh SPINT1 (11716480_a_at) / RFU GAP43 (11754022_s_at) / Fold change /veh GAP43 (11754022_s_at) / RFU A4GNT (11735810_at) / Fold change /veh A4GNT (11735810_at) / RFU PRB3 (11715151_x_at) / Fold change /veh PRB3 (11715151_x_at) / RFU TUBB4B (11761932_at) / Fold change /veh TUBB4B (11761932_at) / RFU CAPN14 (11732068_a_at) / Fold change /veh CAPN14 (11732068_a_at) / RFU TMCC2 (11721928_a_at) / Fold change /veh TMCC2 (11721928_a_at) / RFU IRGQ (11745062_a_at) / Fold change /veh IRGQ (11745062_a_at) / RFU FAM174B (11720279_a_at) / Fold change /veh FAM174B (11720279_a_at) / RFU TMPRSS4 (11748680_a_at) / Fold change /veh TMPRSS4 (11748680_a_at) / RFU FAM212B (11763350_a_at) / Fold change /veh FAM212B (11763350_a_at) / RFU PLEKHG5 (11743358_a_at) / Fold change /veh PLEKHG5 (11743358_a_at) / RFU ZSCAN30 (11745921_a_at) / Fold change /veh ZSCAN30 (11745921_a_at) / RFU CMKLR1 (11741424_a_at) / Fold change /veh CMKLR1 (11741424_a_at) / RFU LOC101060620 /// MAPK8IP1 (11723275_at) / Fold change /veh LOC101060620 /// MAPK8IP1 (11723275_at) / RFU SPTSSB (11747773_x_at) / Fold change /veh SPTSSB (11747773_x_at) / RFU PRSS12 (11739890_at) / Fold change /veh PRSS12 (11739890_at) / RFU BIN1 (11741810_x_at) / Fold change /veh BIN1 (11741810_x_at) / RFU WNT11 (11732464_a_at) / Fold change /veh WNT11 (11732464_a_at) / RFU C10orf10 (11716521_a_at) / Fold change /veh C10orf10 (11716521_a_at) / RFU C5orf56 (11738089_at) / Fold change /veh C5orf56 (11738089_at) / RFU CYB561 (11721691_x_at) / Fold change /veh CYB561 (11721691_x_at) / RFU ANKRD19P (11752326_a_at) / Fold change /veh ANKRD19P (11752326_a_at) / RFU OR2T12 /// OR2T33 /// OR2T8 (11738714_s_at) / Fold change /veh OR2T12 /// OR2T33 /// OR2T8 (11738714_s_at) / RFU VCAN (11748164_a_at) / Fold change /veh VCAN (11748164_a_at) / RFU JSRP1 (11732532_at) / Fold change /veh JSRP1 (11732532_at) / RFU KRTAP10-11 (11738290_x_at) / Fold change /veh KRTAP10-11 (11738290_x_at) / RFU MYO3A (11730013_a_at) / Fold change /veh MYO3A (11730013_a_at) / RFU EBF3 (11725865_a_at) / Fold change /veh EBF3 (11725865_a_at) / RFU CAMK2N1 (11719241_x_at) / Fold change /veh CAMK2N1 (11719241_x_at) / RFU C5orf56 (11738088_a_at) / Fold change /veh C5orf56 (11738088_a_at) / RFU OLFML3 (11715873_a_at) / Fold change /veh OLFML3 (11715873_a_at) / RFU LOC100653217 /// NTM (11731650_a_at) / Fold change /veh LOC100653217 /// NTM (11731650_a_at) / RFU MAPK11 (11762145_a_at) / Fold change /veh MAPK11 (11762145_a_at) / RFU FIZ1 (11724087_x_at) / Fold change /veh FIZ1 (11724087_x_at) / RFU OASL (11726364_x_at) / Fold change /veh OASL (11726364_x_at) / RFU SOX15 (11748057_x_at) / Fold change /veh SOX15 (11748057_x_at) / RFU CD79A (11719716_a_at) / Fold change /veh CD79A (11719716_a_at) / RFU HIST1H1D (11736915_at) / Fold change /veh HIST1H1D (11736915_at) / RFU CASKIN2 (11723855_a_at) / Fold change /veh CASKIN2 (11723855_a_at) / RFU LOC730098 (11760151_x_at) / Fold change /veh LOC730098 (11760151_x_at) / RFU OR4N2 (11742367_at) / Fold change /veh OR4N2 (11742367_at) / RFU PRRT2 (11749266_a_at) / Fold change /veh PRRT2 (11749266_a_at) / RFU SNX32 (11753110_a_at) / Fold change /veh SNX32 (11753110_a_at) / RFU CDHR5 (11726645_a_at) / Fold change /veh CDHR5 (11726645_a_at) / RFU RCAN1 (11760418_a_at) / Fold change /veh RCAN1 (11760418_a_at) / RFU FAM167A (11723789_a_at) / Fold change /veh FAM167A (11723789_a_at) / RFU FAM26E (11764081_at) / Fold change /veh FAM26E (11764081_at) / RFU ISYNA1 (11749810_s_at) / Fold change /veh ISYNA1 (11749810_s_at) / RFU ACY1 (11761880_at) / Fold change /veh ACY1 (11761880_at) / RFU 11764098_at / Fold change /veh 11764098_at / RFU SAMD14 (11745864_x_at) / Fold change /veh SAMD14 (11745864_x_at) / RFU NPB (11741838_a_at) / Fold change /veh NPB (11741838_a_at) / RFU TMPRSS6 (11731388_a_at) / Fold change /veh TMPRSS6 (11731388_a_at) / RFU KRTAP10-2 (11738614_at) / Fold change /veh KRTAP10-2 (11738614_at) / RFU ARHGAP8 /// PRR5-ARHGAP8 (11727945_x_at) / Fold change /veh ARHGAP8 /// PRR5-ARHGAP8 (11727945_x_at) / RFU KRTAP5-7 /// NADSYN1 (11734609_at) / Fold change /veh KRTAP5-7 /// NADSYN1 (11734609_at) / RFU RASL12 (11751679_a_at) / Fold change /veh RASL12 (11751679_a_at) / RFU CDKN2B (11736163_a_at) / Fold change /veh CDKN2B (11736163_a_at) / RFU PRF1 (11729649_at) / Fold change /veh PRF1 (11729649_at) / RFU, ZNF638 /// ZNF638-IT1 / Fold change vs veh, ZNF638 /// ZNF638-IT1 / RFU, PANK3 / Fold change vs veh, PANK3 / RFU, SH3YL1 / Fold change vs veh, SH3YL1 / RFU, ZEB2 / Fold change vs veh, ZEB2 / RFU, NRIP1 / Fold change vs veh, NRIP1 / RFU, PTTG1IP / Fold change vs veh, PTTG1IP / RFU, CAPN2 / Fold change vs veh, CAPN2 / RFU, MED14 / Fold change vs veh, MED14 / RFU, SNORA58 / Fold change vs veh, SNORA58 / RFU, C1orf63 / Fold change vs veh, C1orf63 / RFU, LRRFIP1 / Fold change vs veh, LRRFIP1 / RFU, NDUFAF7 / Fold change vs veh, NDUFAF7 / RFU, SLC12A2 / Fold change vs veh, SLC12A2 / RFU, IBTK / Fold change vs veh, IBTK / RFU, ESF1 / Fold change vs veh, ESF1 / Fold change vs veh, TMEM50B / RFU, TAOK1 / Fold change vs veh, TAOK1 / RFU, ACBD3 / Fold change vs veh, ACBD3 / RFU, TMA16 / Fold change vs veh, TMA16 / RFU, RWDD3 / Fold change vs veh, RWDD3 / RFU, BCAT1 / Fold change vs veh, BCAT1 / RFU, EDEM3 / Fold change vs veh, EDEM3 / RFU, TMEM33 / Fold change vs veh, TMEM33 / RFU, WDR75 / Fold change vs veh, WDR75 / RFU, AHCTF1 / Fold change vs veh, AHCTF1 / RFU, TFRC / Fold change vs veh, TFRC / RFU, ZDHHC17 / Fold change vs veh, ZDHHC17 / RFU, NOM1 / Fold change vs veh, NOM1 / RFU, ARL8B / Fold change vs veh, ARL8B / RFU, ZBTB11 / Fold change vs veh, ZBTB11 / RFU, TAMM41 / Fold change vs veh, TAMM41 / RFU, KIAA1704 /// LOC100996395 / Fold change vs veh, KIAA1704 /// LOC100996395 / RFU, ING1 / Fold change vs veh, ING1 / RFU, TRMT61B / Fold change vs veh, TRMT61B / RFU, FUBP3 / Fold change vs veh, FUBP3 / RFU, TP53 / Fold change vs veh, TP53 / RFU, TNKS2 / Fold change vs veh, TNKS2 / RFU, ZFP14 / Fold change vs veh, ZFP14 / RFU, ACTR2 / Fold change vs veh, ACTR2 / RFU, PPP3R1 / Fold change vs veh, PPP3R1 / RFU, PIK3R1 / Fold change vs veh, PIK3R1 / RFU, HNRNPA1 / Fold change vs veh, HNRNPA1 / RFU, RNF170 / Fold change vs veh, RNF170 / RFU, ZNF28 / Fold change vs veh, ZNF28 / RFU, RNGTT / Fold change vs veh, RNGTT / RFU, OGT / Fold change vs veh, OGT / RFU, BRD1 / Fold change vs veh, BRD1 / RFU, MARS / Fold change vs veh, MARS / RFU, ZNF655 / Fold change vs veh, ZNF655 / RFU, FAHD1 / Fold change vs veh, FAHD1 / RFU, BDP1 / Fold change vs veh, BDP1 / RFU, LRRCC1 / Fold change vs veh, LRRCC1 / RFU, ARID1A / Fold change vs veh, ARID1A / RFU, ZNF146 / Fold change vs veh, ZNF146 / RFU, ZNF330 / Fold change vs veh, ZNF330 / RFU, GPN3 / Fold change vs veh, GPN3 / RFU, C9orf123 / Fold change vs veh, C9orf123 / RFU, N4BP2L2 / Fold change vs veh, N4BP2L2 / RFU, ARFIP1 / Fold change vs veh, ARFIP1 / RFU, FAM179B / Fold change vs veh, FAM179B / RFU, BCL10 / Fold change vs veh, BCL10 / RFU, UHRF1BP1L / Fold change vs veh, UHRF1BP1L / RFU, BET1 / Fold change vs veh, BET1 / RFU, CNOT2 / Fold change vs veh, CNOT2 / RFU, ZNF268 / Fold change vs veh, ZNF268 / Fold change vs veh, ZNF507 / RFU, DGCR2 / Fold change vs veh, DGCR2 / RFU, WDSUB1 / Fold change vs veh, WDSUB1 / Fold change vs veh, HSP90B1 /// MIR3652 / RFU, ADSS / Fold change vs veh, ADSS / RFU, GK / Fold change vs veh, GK / RFU, ZNF148 / Fold change vs veh, ZNF148 / RFU, TAF9 / Fold change vs veh, TAF9 / RFU, SLC1A5 / Fold change vs veh, SLC1A5 / RFU, SLMO2 / Fold change vs veh, SLMO2 / RFU, ABCC4 / Fold change vs veh, ABCC4 / RFU, LOC101060439 /// RAP1B / Fold change vs veh, LOC101060439 /// RAP1B / RFU, RFX7 / Fold change vs veh, RFX7 / RFU, GTPBP10 / Fold change vs veh, GTPBP10 / RFU, CNEP1R1 / Fold change vs veh, CNEP1R1 / RFU, BIVM-ERCC5 /// ERCC5 / Fold change vs veh, BIVM-ERCC5 /// ERCC5 / RFU, ILF3 / Fold change vs veh, ILF3 / RFU 11762660_at / Fold change /veh 11762660_at / RFU VCAN (11757783_s_at) / Fold change /veh VCAN (11757783_s_at) / RFU DDX43 (11728927_at) / Fold change /veh DDX43 (11728927_at) / RFU KRT8 (11758188_x_at) / Fold change /veh KRT8 (11758188_x_at) / RFU NKD1 (11759106_at) / Fold change /veh NKD1 (11759106_at) / RFU SRD5A1 (11742802_a_at) / Fold change /veh SRD5A1 (11742802_a_at) / RFU TPSAB1 /// TPSB2 (11721975_s_at) / Fold change /veh TPSAB1 /// TPSB2 (11721975_s_at) / RFU GSTM3 (11746129_a_at) / Fold change /veh GSTM3 (11746129_a_at) / RFU IL23R (11737362_x_at) / Fold change /veh IL23R (11737362_x_at) / RFU TMEM51 (11727254_a_at) / Fold change /veh TMEM51 (11727254_a_at) / RFU PIWIL2 (11732686_x_at) / Fold change /veh PIWIL2 (11732686_x_at) / RFU ORM1 (11744905_x_at) / Fold change /veh ORM1 (11744905_x_at) / RFU CCDC152 (11743942_at) / Fold change /veh CCDC152 (11743942_at) / RFU ECM1 (11717891_a_at) / Fold change /veh ECM1 (11717891_a_at) / RFU IL23R (11748794_a_at) / Fold change /veh IL23R (11748794_a_at) / RFU TNFAIP8L3 (11732012_x_at) / Fold change /veh TNFAIP8L3 (11732012_x_at) / RFU MBOAT4 (11741988_at) / Fold change /veh MBOAT4 (11741988_at) / RFU 11764193_at / Fold change /veh 11764193_at / RFU TMEM53 (11763286_at) / Fold change /veh TMEM53 (11763286_at) / RFU MAGEB2 (11727129_at) / Fold change /veh MAGEB2 (11727129_at) / RFU TMEM200A (11744735_a_at) / Fold change /veh TMEM200A (11744735_a_at) / RFU CCDC152 (11751479_a_at) / Fold change /veh CCDC152 (11751479_a_at) / RFU FAM211A (11726209_a_at) / Fold change /veh FAM211A (11726209_a_at) / RFU RGS16 (11746705_a_at) / Fold change /veh RGS16 (11746705_a_at) / RFU VCAN (11755009_s_at) / Fold change /veh VCAN (11755009_s_at) / RFU RHOB (11743442_s_at) / Fold change /veh RHOB (11743442_s_at) / RFU RGS16 (11720943_a_at) / Fold change /veh RGS16 (11720943_a_at) / RFU RGS16 (11720944_at) / Fold change /veh RGS16 (11720944_at) / RFU, VPS4B / Fold change vs veh, VPS4B / RFU, CREB1 / Fold change vs veh, CREB1 / RFU, DNAJC13 / Fold change vs veh, DNAJC13 / RFU, GNAQ / Fold change vs veh, GNAQ / RFU, CDK5R1 / Fold change vs veh, CDK5R1 / RFU, ZRANB3 / Fold change vs veh, ZRANB3 / RFU, CUL4A / Fold change vs veh, CUL4A / RFU, CCNY / Fold change vs veh, CCNY / RFU, UFL1 / Fold change vs veh, UFL1 / RFU, COG3 / Fold change vs veh, COG3 / RFU, DIAPH2 / Fold change vs veh, DIAPH2 / RFU, SKA2 / Fold change vs veh, SKA2 / RFU, AFF3 / Fold change vs veh, AFF3 / RFU, LMF1 / Fold change vs veh, LMF1 / RFU, IPO11 / Fold change vs veh, IPO11 / RFU, DFFB / Fold change vs veh, DFFB / RFU, FOXP1 / Fold change vs veh, FOXP1 / RFU, CARD8 / Fold change vs veh, CARD8 / RFU, STRN3 / Fold change vs veh, STRN3 / RFU, ADK / Fold change vs veh, ADK / RFU, RASSF2 / Fold change vs veh, RASSF2 / RFU, WIPF1 / Fold change vs veh, WIPF1 / RFU, LARP1B / Fold change vs veh, LARP1B / RFU, RASA1 / Fold change vs veh, RASA1 / RFU, RB1 / Fold change vs veh, RB1 / RFU, PPFIA1 / Fold change vs veh, PPFIA1 / RFU, MAT2A / Fold change vs veh, MAT2A / RFU, CCT5 / Fold change vs veh, CCT5 / RFU, WDR92 / Fold change vs veh, WDR92 / RFU, CUX1 / Fold change vs veh, CUX1 / RFU, TTC7A / Fold change vs veh, TTC7A / RFU, TMEM135 / Fold change vs veh, TMEM135 / RFU, DEPTOR / Fold change vs veh, DEPTOR / RFU, CPM / Fold change vs veh, CPM / RFU, DNAJB6 / Fold change vs veh, DNAJB6 / RFU, CACNA2D3 / Fold change vs veh, CACNA2D3 / RFU, DTX4 / Fold change vs veh, DTX4 / RFU, TFCP2 / Fold change vs veh, TFCP2 / RFU, GMCL1 /// GMCL1P1 / Fold change vs veh, GMCL1 /// GMCL1P1 / RFU, AEBP2 / Fold change vs veh, AEBP2 / RFU, SNHG1 /// SNORD22 /// SNORD25 /// SNORD26 /// SNORD27 /// SNORD28 /// SNORD29 /// SNORD31 / Fold change vs veh, SNHG1 /// SNORD22 /// SNORD25 /// SNORD26 /// SNORD27 /// SNORD28 /// SNORD29 /// SNORD31 / Fold change (Aza/veh), C12orf56 (ProbeSet 11735607_a_at) / Fold change (ACY-1035/veh), C12orf56 (ProbeSet 11735607_a_at) / Fold change (Aza/veh), FGFR1OP (ProbeSet 11751329_s_at) / Fold change (ACY-1035/veh), FGFR1OP (ProbeSet 11751329_s_at) / Fold change (Aza/veh), VPS36 (ProbeSet 11739960_a_at) / Fold change (ACY-1035/veh), VPS36 (ProbeSet 11739960_a_at) / RFU SYPL1 (11715823_x_at) / Fold change /veh SYPL1 (11715823_x_at) / RFU IGFBP7 (11715501_s_at) / Fold change /veh IGFBP7 (11715501_s_at) / RFU REEP3 (11722064_at) / Fold change /veh REEP3 (11722064_at) / RFU IGLL1 (11728026_x_at) / Fold change /veh IGLL1 (11728026_x_at): dose or concentration left out as unconfirmed
Settings: MV-4-11 cells, 48 hours

In the case of Nc1ccc(-c2cccs2)cc1NC(=O)c1ccc2c(c1)cc(C1CC1)n2CCN1CCOCC1 [ACY-1035], the “RFU OASL (11726364_x_at)” value is reported as 41.33 RFU.
